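All cell lines were grown in 96-well plates and treated with compound for 48 hours. The concentration for 50% growth inhibition is given as GI50. TGI marks complete inhibition of growth.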
Columns and labels:
Experiment in all cases: growth of human tumour cells (NCI), 48 h
[1] = test system: 786-0 renal
[2] = test system: A498 renal
[3] = test system: A549 NSCLC
[4] = test system: ACHN renal
[5] = test system: BT-549 breast
[6] = test system: CAKI-1 renal
[7] = test system: CCRF-CEM leukemia
[8] = test system: COLO 205 colon
[9] = test system: DU-145 prostate
[10] = test system: EKVX NSCLC
[11] = test system: HCC-2998 colon
[12] = test system: HCT-116 colon
[13] = test system: HCT-15 colon
[14] = test system: HL-60(TB) leukemia
[15] = test system: HOP-62 NSCLC
[16] = test system: HOP-92 NSCLC
[17] = test system: HS 578T breast
[18] = test system: HT29 colon
[19] = test system: IGROV1 ovarian
[20] = test system: K-562 leukemia
[21] = test system: KM12 colon
[22] = test system: LOX IMVI melanoma
[23] = test system: M14 melanoma
[24] = test system: MALME-3M melanoma
[25] = test system: MCF7 breast
[26] = test system: MDA-MB-231 breast
[27] = test system: MDA-MB-435
[28] = test system: MDA-MB-468 breast
[29] = test system: MOLT-4 leukemia
[30] = test system: NCI-H226 lung
[31] = test system: NCI-H23 lung
[32] = test system: NCI-H460 lung
[33] = test system: NCI-H522 lung
[34] = test system: NCI/ADR-RES ovarian
[35] = test system: OVCAR-3 ovarian
[36] = test system: OVCAR-4 ovarian
[37] = test system: OVCAR-5 ovarian
[38] = test system: OVCAR-8 ovarian
[39] = test system: PC-3 prostate
[40] = test system: RPMI-8226 leukemia
[41] = test system: SF-268 CNS
[42] = test system: SF-295 CNS
[43] = test system: SF-539 CNS
[44] = test system: SK-MEL-2 melanoma
[45] = test system: SK-MEL-28 melanoma
[46] = test system: SK-MEL-5 melanoma
[47] = test system: SK-OV-3 ovarian
[48] = test system: SN12C renal
[49] = test system: SNB-19 CNS
[50] = test system: SNB-75 CNS
[51] = test system: SR leukemia
[52] = test system: SW-620 colon
[53] = test system: T-47D breast
[54] = test system: TK-10 renal
[55] = test system: U251 CNS
[56] = test system: UACC-257 melanoma
[57] = test system: UACC-62 melanoma
[58] = test system: UO-31 renal

SMILES: Cc1ccc(Cl)cc1NC(=O)N/C(N)=N/c1nc2ccccc2s1
- GI50 [1]: 64.1 nM
- TGI [1]: 4020 nM
- GI50 [2]: 12400 nM
- TGI [2]: 25800 nM
- GI50 [3]: 115 nM
- TGI [3]: 4500 nM
- GI50 [4]: 79.4 nM
- TGI [4]: 6370 nM
- GI50 [5]: 183 nM
- TGI [5]: 1370 nM
- GI50 [6]: 45.6 nM
- TGI [6]: 6660 nM
- GI50 [7]: 37.1 nM
- TGI [7]: 7470 nM
- GI50 [8]: 67.9 nM
- TGI [8]: 285 nM
- GI50 [9]: 47.1 nM
- TGI [9]: 2850 nM
- GI50 [10]: 109 nM
- TGI [10]: 15200 nM
- GI50 [11]: 67.6 nM
- TGI [11]: 1110 nM
- GI50 [12]: 37.1 nM
- TGI [12]: 696 nM
- GI50 [13]: 40.5 nM
- TGI [13]: 3000 nM
- GI50 [14]: 30.9 nM
- TGI [14]: 843 nM
- GI50 [15]: 50.8 nM
- TGI [15]: 2980 nM
- GI50 [16]: 1170 nM
- TGI [16]: 10900 nM
- GI50 [17]: 34.3 nM
- TGI [17]: 22700 nM
- GI50 [18]: 28.9 nM
- TGI [18]: 118 nM
- GI50 [19]: 99.2 nM
- TGI [19]: 2860 nM
- GI50 [20]: 34.6 nM
- TGI [20]: > 33900 nM
- GI50 [21]: 45.5 nM
- TGI [21]: 7120 nM
- GI50 [22]: 61.9 nM
- TGI [22]: 1520 nM
- GI50 [23]: 25.6 nM
- TGI [23]: 523 nM
- GI50 [24]: 54.4 nM
- TGI [24]: 12000 nM
- GI50 [25]: 199 nM
- TGI [25]: 11400 nM
- GI50 [26]: 39.2 nM
- TGI [26]: 278 nM
- GI50 [27]: 20.3 nM
- TGI [27]: 43.5 nM
- GI50 [28]: 217 nM
- TGI [28]: 650 nM
- GI50 [29]: 60.3 nM
- TGI [29]: 8400 nM
- GI50 [30]: 187 nM
- TGI [30]: 2550 nM
- GI50 [31]: 45.2 nM
- TGI [31]: 3570 nM
- GI50 [32]: 39.1 nM
- TGI [32]: 1320 nM
- GI50 [33]: 24.7 nM
- TGI [33]: 88.3 nM
- GI50 [34]: 23 nM
- TGI [34]: 54.9 nM
- GI50 [35]: 36.8 nM
- TGI [35]: 1330 nM
- GI50 [36]: 1580 nM
- TGI [36]: 16300 nM
- GI50 [37]: 131 nM
- TGI [37]: 4960 nM
- GI50 [38]: 43.8 nM
- TGI [38]: 2080 nM
- GI50 [39]: 55.1 nM
- TGI [39]: 11300 nM
- GI50 [40]: 42.5 nM
- TGI [40]: 6190 nM
- GI50 [41]: 493 nM
- TGI [41]: 26600 nM
- GI50 [42]: 29.9 nM
- TGI [42]: 1300 nM
- GI50 [43]: 22.2 nM
- TGI [43]: 54.7 nM
- GI50 [44]: 95 nM
- TGI [44]: 941 nM
- GI50 [45]: 608 nM
- TGI [45]: 19900 nM
- GI50 [46]: 33.2 nM
- TGI [46]: 136 nM
- GI50 [47]: 62.4 nM
- TGI [47]: 4730 nM
- GI50 [48]: 64.1 nM
- TGI [48]: 2440 nM
- GI50 [49]: 66.5 nM
- TGI [49]: 15200 nM
- GI50 [50]: 125 nM
- TGI [50]: 9290 nM
- GI50 [51]: 51.3 nM
- GI50 [52]: 44.5 nM
- TGI [52]: 14400 nM
- GI50 [53]: 1320 nM
- TGI [53]: 53200 nM
- GI50 [54]: 4950 nM
- TGI [54]: 16600 nM
- GI50 [55]: 37 nM
- TGI [55]: 3670 nM
- GI50 [56]: 6470 nM
- TGI [56]: 33200 nM
- GI50 [57]: 46.7 nM
- TGI [57]: 5530 nM
- GI50 [58]: 59.3 nM
- TGI [58]: 10200 nM
